Results as given in patent US20080063628A1, “METHODS TO PROMOTE CELL DIFFERENTIATION” (priority 2006, published 2008).

Experiments:
[1] = test system: early passage (P5) pancreatic-derived stromal cell line; assay: Two sequential high dose trichostatin A treatments (24 h each), gene expression by RT-PCR (Example 8); type: cell-based, human; conditions: for HNF-3 beta gene expression / Insulin gene expression / Pdx-1 gene expression / glucagon gene expression: 5 μM 0-24 h + 96-120 h
Experimental: (§1) Several cell lines obtained from different amniotic fluid specimens (see Example 14) and pancreas donors (see Example 13) were tested with similar results. Two lines at similar passage number but derived from different amniotic fluid specimens are shown in Table VIII-A and Table VIII-B for this example. One of these cell lines was also used in examples 2 and 4 above. In addition, this example also contains comparison data in Table VIII-C and Table VIII-D for a single pancreatic-derived stromal line grown to early and late passage number.
(§2) Amniotic fluid derived cells or pancreatic-derived stromal cells were seeded into 24-well tissue culture plates at a density of 5000/cm^2 and cultured in AMNIOMAX (Invitrogen) or DMEM with 10% FBS respectively under standard cell culture conditions until confluent. After the cells reached confluency, amniotic fluid derived cells were treated at time 0 hours with a dose of 1.25 μM trichostatin A, and pancreatic-derived stromal cells were treated with a dose of 5.0 μM trichostatin A solubilized in DMSO and medium. At time 24 hours, cell cultures underwent a complete medium change to remove all traces of trichostatin A. At time 96 hours, cell cultures were re-fed with fresh medium and received a second dose of trichostatin A at the same concentration as used previously. At time 120 hours, cell cultures again underwent a complete medium change and were cultured for an additional 24 hours or […] total incubation time.
(§3) Samples were taken daily for RT-PCR at the times indicated in Table VIII-A to D. The culture media was removed, and samples were rinsed in PBS then collected in RLT with β-mercaptoethanol (Qiagen). RNA was purified using the RNeasy Mini Kit (Qiagen) and RNA quantity and quality were determined using a spectrophotometer. cDNA was made using the iScript cDNA synthesis kit (BioRad).
(§4) Samples of 20 ng cDNA were used in each reaction to determine the expression levels of the following genes in amniotic fluid-derived cells: Gata1, HNF-3 beta, Pdx-1, insulin, and Sox17. Similarly, samples of 20 ng cDNA were used in each reaction to determine the expression level of the following genes in pancreatic-derived cells: glucagon, HNF-3 beta, insulin and Pdx-1. Real-Time PCR was performed on the Applied Biosystems 7500, and data was analyzed using the accompanying software according to the methods described in Example 15.
(§5) Real-time PCR amplifcation and quantitative analysis. Unless otherwise stated, all reagents were purchased from Applied Biosystems. Real-time PCR reactions were performed using the ABI PRISM™ 7500 Sequence Detection System. TAQMAN™ FAST UNIVERSAL PCR MASTER MIX™ (ABI, CA) was used with 20 ng of reverse transcribed RNA in a total reaction volume of 20 μl. Each cDNA sample was run in duplicate to allow correction of pipetting errors. Primers and FAM-labeled TAQMAN™ probes were used at concentrations of 200 nM. The level of expression for each target gene was normalized using the pre-developed Applied Biosystem's human glyceraldehyde-3-phosphate dehydrogenase (GAPDH) endogenous control kit. Primers and probes were designed using either ABI PRISM PRIMER EXPRESS™ software or a pre-developed ABI gene analysis kit. For each gene, either one of the primers or the probe were designed to be exon-boundary spanning. This eliminated the possibility of the primers/probe binding to any genomic DNA present. The primer and probe sets are listed as follows: Pdx-1 (Hs00426216), Insulin (Hs00355773), glucagon (Hs00174967), and FoxA2 (HNF 3-beta) (Hs00232764). The remaining primers were designed using the PRIMERS program (ABI, CA). After an initial 95° C. incubation for 20 sec, samples were cycled 40 times in two stages: a denaturation step at 95° C. for 3 sec, followed by an annealing/extension step at 60° C. for 30 sec. […]

[2] = test system: second amniotic fluid-derived cell line; assay: as above; type: cell-based, human; conditions: for Gata1 gene expression / HNF-3 beta gene expression / Insulin gene expression / Pdx-1 gene expression / sox17 gene expression: 1.25 μM 0-24 h + 96-120 h
Experimental: as §1, §2, §3, §4, §5

[3] = 5.0 μM, following first treatment
[4] = 1.25 μM, following the second treatment

Which “HNF-3 beta gene expression” value ([1]; 24 hrs) does the source give for `CC(/C=C/C(=O)NO)=C\[C@@H](C)C(=O)c1ccc(N(C)C)cc1` [trichostatin A] here?
Its value is “+++ (detectable at less than 35 cycles by RT-PCR with SE less than 0.9)”.

What about the Insulin gene expression ([1]; 24 hrs) of the same compound?
Its Insulin gene expression is “nd (not detectable at >40 cycles by RT-PCR)”.

And the Pdx-1 gene expression ([1]; 24 hrs)?
The Pdx-1 gene expression was “++ (detectable at less than 35 cycles by RT-PCR with SE greater than 0.9)”.

What about the glucagon gene expression ([1]; 24 hrs) of the same compound?
The glucagon gene expression was “+++ (detectable at less than 35 cycles by RT-PCR with SE less than 0.9)”.

And the “HNF-3 beta gene expression” value ([1]; 48 hrs)?
The value was “nd (not detectable at >40 cycles by RT-PCR)”.

What about the Insulin gene expression ([1]; 48 hrs) of the same compound?
The Insulin gene expression was “nd (not detectable at >40 cycles by RT-PCR)”.

And the Pdx-1 gene expression ([1]; 48 hrs)?
Its Pdx-1 gene expression is “nd (not detectable at >40 cycles by RT-PCR)”.

And the glucagon gene expression ([1]; 48 hrs)?
Its glucagon gene expression is “+ (detectable between 35 and 40 cycles by RT-PCR)”.

What about the “HNF-3 beta gene expression” value ([1]; 72 hrs) of the same compound?
The value was “nd (not detectable at >40 cycles by RT-PCR)”.

What about the Insulin gene expression ([1]; 72 hrs) of the same compound?
The Insulin gene expression was “nd (not detectable at >40 cycles by RT-PCR)”.

What about the Pdx-1 gene expression ([1]; 72 hrs) of the same compound?
The Pdx-1 gene expression was “nd (not detectable at >40 cycles by RT-PCR)”.

What about the glucagon gene expression ([1]; 72 hrs) of the same compound?
The glucagon gene expression was “+ (detectable between 35 and 40 cycles by RT-PCR)”.

What about the “HNF-3 beta gene expression” value ([1]; 96 hrs) of the same compound?
The value was “nd (not detectable at >40 cycles by RT-PCR)”.

And the Insulin gene expression ([1]; 96 hrs)?
Its Insulin gene expression is “nd (not detectable at >40 cycles by RT-PCR)”.

What about the Pdx-1 gene expression ([1]; 96 hrs) of the same compound?
Its Pdx-1 gene expression is “nd (not detectable at >40 cycles by RT-PCR)”.

What about the glucagon gene expression ([1]; 96 hrs) of the same compound?
Its glucagon gene expression is “nd (not detectable at >40 cycles by RT-PCR)”.

What about the “HNF-3 beta gene expression” value ([1]; 120 hrs) of the same compound?
The value was “+ (detectable between 35 and 40 cycles by RT-PCR)”.

And the Insulin gene expression ([1]; 120 hrs)?
Its Insulin gene expression is “nd (not detectable at >40 cycles by RT-PCR)”.

And the Pdx-1 gene expression ([1]; 120 hrs)?
The Pdx-1 gene expression was “+++ (detectable at less than 35 cycles by RT-PCR with SE less than 0.9)”.

And the glucagon gene expression ([1]; 120 hrs)?
Its glucagon gene expression is “nd (not detectable at >40 cycles by RT-PCR)”.

What about the “HNF-3 beta gene expression” value ([1]; 144 hrs) of the same compound?
Its value is “nd (not detectable at >40 cycles by RT-PCR)”.

What about the Insulin gene expression ([1]; 144 hrs) of the same compound?
The Insulin gene expression was “nd (not detectable at >40 cycles by RT-PCR)”.

And the Pdx-1 gene expression ([1]; 144 hrs)?
Its Pdx-1 gene expression is “nd (not detectable at >40 cycles by RT-PCR)”.

And the glucagon gene expression ([1]; 144 hrs)?
Its glucagon gene expression is “+ (detectable between 35 and 40 cycles by RT-PCR)”.

What about the “Pdx-1 RT-PCR detection cycle” value ([1]; 5.0 μM, after the second treatment) of the same compound?
The value was 32 cycles.

And the “glucagon RT-PCR detection cycle” value ([1]; 5.0 μM, end of the experiment)?
The value was 38 cycles.

And the “HNF-3 beta RT-PCR detection cycle” value ([1]; 5.0 μM, following a second treatment)?
Its value is 36 cycles.

What about the “HNF-3 beta RT-PCR detection cycle” value [1, 3] of the same compound?
Its value is 34 cycles.

And the “glucagon RT-PCR detection cycle” value [1, 3]?
Its value is 35 cycles.

And the Gata1 gene expression ([2]; 24 hrs)?
The Gata1 gene expression was “+ (detectable between 35 and 40 cycles by RT-PCR)”.

What about the “HNF-3 beta gene expression” value ([2]; 24 hrs) of the same compound?
The value was “+++ (detectable at less than 35 cycles by RT-PCR with SE less than 0.9)”.

And the Insulin gene expression ([2]; 24 hrs)?
Its Insulin gene expression is “nd (not detectable at >40 cycles by RT-PCR)”.

And the Pdx-1 gene expression ([2]; 24 hrs)?
The Pdx-1 gene expression was “+++ (detectable at less than 35 cycles by RT-PCR with SE less than 0.9)”.

What about the sox17 gene expression ([2]; 24 hrs) of the same compound?
Its sox17 gene expression is “+++ (detectable at less than 35 cycles by RT-PCR with SE less than 0.9)”.

What about the Gata1 gene expression ([2]; 48 hrs) of the same compound?
The Gata1 gene expression was “nd (not detectable at >40 cycles by RT-PCR)”.

And the “HNF-3 beta gene expression” value ([2]; 48 hrs)?
Its value is “+++ (detectable at less than 35 cycles by RT-PCR with SE less than 0.9)”.

And the Insulin gene expression ([2]; 48 hrs)?
The Insulin gene expression was “nd (not detectable at >40 cycles by RT-PCR)”.

And the Pdx-1 gene expression ([2]; 48 hrs)?
The Pdx-1 gene expression was “nd (not detectable at >40 cycles by RT-PCR)”.

And the sox17 gene expression ([2]; 48 hrs)?
Its sox17 gene expression is “+++ (detectable at less than 35 cycles by RT-PCR with SE less than 0.9)”.

And the Gata1 gene expression ([2]; 72 hrs)?
The Gata1 gene expression was “nd (not detectable at >40 cycles by RT-PCR)”.

What about the “HNF-3 beta gene expression” value ([2]; 72 hrs) of the same compound?
Its value is “+++ (detectable at less than 35 cycles by RT-PCR with SE less than 0.9)”.

And the Insulin gene expression ([2]; 72 hrs)?
The Insulin gene expression was “+ (detectable between 35 and 40 cycles by RT-PCR)”.

And the Pdx-1 gene expression ([2]; 72 hrs)?
Its Pdx-1 gene expression is “nd (not detectable at >40 cycles by RT-PCR)”.

What about the sox17 gene expression ([2]; 72 hrs) of the same compound?
Its sox17 gene expression is “+++ (detectable at less than 35 cycles by RT-PCR with SE less than 0.9)”.

What about the Gata1 gene expression ([2]; 96 hrs) of the same compound?
The Gata1 gene expression was “nd (not detectable at >40 cycles by RT-PCR)”.

What about the “HNF-3 beta gene expression” value ([2]; 96 hrs) of the same compound?
Its value is “+ (detectable between 35 and 40 cycles by RT-PCR)”.

And the Insulin gene expression ([2]; 96 hrs)?
The Insulin gene expression was “+ (detectable between 35 and 40 cycles by RT-PCR)”.

And the Pdx-1 gene expression ([2]; 96 hrs)?
Its Pdx-1 gene expression is “nd (not detectable at >40 cycles by RT-PCR)”.

And the sox17 gene expression ([2]; 96 hrs)?
Its sox17 gene expression is “+++ (detectable at less than 35 cycles by RT-PCR with SE less than 0.9)”.

And the Gata1 gene expression ([2]; 120 hrs)?
Its Gata1 gene expression is “+ (detectable between 35 and 40 cycles by RT-PCR)”.

And the “HNF-3 beta gene expression” value ([2]; 120 hrs)?
The value was “+++ (detectable at less than 35 cycles by RT-PCR with SE less than 0.9)”.

And the Insulin gene expression ([2]; 120 hrs)?
The Insulin gene expression was “nd (not detectable at >40 cycles by RT-PCR)”.

What about the Pdx-1 gene expression ([2]; 120 hrs) of the same compound?
The Pdx-1 gene expression was “+++ (detectable at less than 35 cycles by RT-PCR with SE less than 0.9)”.

What about the sox17 gene expression ([2]; 120 hrs) of the same compound?
Its sox17 gene expression is “+++ (detectable at less than 35 cycles by RT-PCR with SE less than 0.9)”.

And the Gata1 gene expression ([2]; 144 hrs)?
Its Gata1 gene expression is “nd (not detectable at >40 cycles by RT-PCR)”.

What about the “HNF-3 beta gene expression” value ([2]; 144 hrs) of the same compound?
Its value is “+++ (detectable at less than 35 cycles by RT-PCR with SE less than 0.9)”.

And the Insulin gene expression ([2]; 144 hrs)?
The Insulin gene expression was “nd (not detectable at >40 cycles by RT-PCR)”.

And the Pdx-1 gene expression ([2]; 144 hrs)?
The Pdx-1 gene expression was “nd (not detectable at >40 cycles by RT-PCR)”.

What about the sox17 gene expression ([2]; 144 hrs) of the same compound?
The sox17 gene expression was “+++ (detectable at less than 35 cycles by RT-PCR with SE less than 0.9)”.

What about the “Pdx-1 RT-PCR detection cycle” value ([2]; 1.25 μM, after the initial treatment) of the same compound?
The value was 33 cycles.

What about the “Insulin RT-PCR detection cycle” value ([2]; 1.25 μM, after trichostatin A was washed away) of the same compound?
The value was 36 cycles.

What about the “HNF-3 beta RT-PCR detection cycle” value [2, 4] of the same compound?
Its value is 32 cycles.

And the “Pdx-1 RT-PCR detection cycle” value [2, 4]?
Its value is 32 cycles.

What about the “HNF-3 beta RT-PCR detection cycle” value ([2]; 1.25 μM, initial treatment) of the same compound?
The value was 35 cycles.

What about the “HNF-3 beta RT-PCR detection cycle” value ([2]; 1.25 μM, prior to the second addition) of the same compound?
The value was 38 cycles.
